Source: a melting point compilation (Tetko et al.; mined from patent text by program, amines drawn as free bases though some values may be those of a salt)
Residues, ends and D or L forms follow the SMILES beside them. *: point of attachment. Tos = Cc1ccc(S(=O)(=O)*)cc1

First: COc1cccc2c(=O)[nH]ccc12
Second: COc1cc2ccc(C(=O)CCl)cc2cc1OC
The melting point of the first is higher: 215 to 217 °C for the first, 137 to 140 °C for the second.

Compared with `CC(C)NCC(O)COc1ccccc1-c1ccc(=S)[nH]n1` (stereo unspecified), `CCCOc1cccc(NC(=O)c2ccccc2C)c1` is lower in melting point: 166 to 168 °C for the first, 92 to 94 °C for the second.

First: CC(C)Cc1nc2ccc(C(c3cccc(Cl)c3)n3ccnc3)cc2[nH]c1=O (stereo unspecified)
Second: CCOc1nn(Cc2ccc(OCc3ccc4ccccc4n3)cc2)cc1CCC(=O)O
The melting point of the first is higher: 215 °C for the first, 140 to 141 °C for the second.

First: COc1ccc(-n2c(=O)n(OCc3ccccc3)c(=O)c3cc(F)c(F)cc32)cc1
Second: COc1ccc(-c2ccc3c(c2)c2c(Cl)ccnc2n3S(=O)(=O)c2ccccc2)cc1
The melting point of the first is higher: 211 to 212 °C for the first, 209 to 211 °C for the second.

First: CN(C1CCN(Cc2ccc(F)cc2)CC1)S(=O)(=O)c1ccc(Nc2nccc(Nc3ccc(F)cc3)n2)cc1
Second: CC[C@@H](c1ccccc1)N(Cc1ccc(CN)cc1)S(=O)(=O)c1ccc(Cl)cc1
The melting point of the first is higher: 129 to 131 °C for the first, 108 to 110 °C for the second.

First: CCOC(=O)c1cccn2cc(C(OCC)OCC)nc12
Second: CCOC(=O)c1cccc(S(=O)(=O)NC(=O)Nc2nc(C)nc(OC)n2)c1I
The melting point of the first is lower: 98 to 100 °C for the first, 177 to 179 °C for the second.

Compared with `Cc1ccc(S(=O)(=O)N2CCC[C@H]2C(=O)N[C@@H](CC(N)=O)C(=O)O)cc1` (Tos-Pro-Asn-OH), `CCOC(=O)Nc1ccc(C(=O)CCC(=O)O)cc1` is higher in melting point: 178 to 180 °C for the first, 206 to 207 °C for the second.

Compared with `C=C(c1cn(-c2c(Cl)cc(C(F)(F)F)cc2Cl)nc1C#N)C(F)(F)F`, `O=C(Nc1cc(-c2cccc(C(F)(F)F)c2)no1)c1c(F)cccc1F` is higher in melting point: 103 to 104 °C for the first, 123 to 126 °C for the second.

First: Nc1nc2ccccc2c2c1ncn2CC1(O)CCCC1
Second: c1ccc2c(c1)ncn2CN1CCN(Cn2cnc3ccccc32)CC1
The melting point of the first is higher: 254 to 255 °C for the first, 250 to 253 °C for the second.

First: CN1C(=O)C(NC(=O)CCc2ccc(Cl)cc2Cl)CC(=O)c2ccccc21 (stereo unspecified)
Second: CCN(CC)C(=O)Nc1ccc2c(c1Cl)C(c1ccccc1F)=NCC(=O)N2C
The melting point of the first is lower: 182 to 184 °C for the first, 190 to 191 °C for the second.

First: O=C(NC[C@H](O)[C@@H](O)[C@H](O)C(=O)CO)OCc1ccccc1
Second: O=C(O)CC(Cc1ccccc1)N1C(=O)c2ccccc2C1=O (stereo unspecified)
The melting point of the first is lower: 107 to 111 °C for the first, 123 to 124 °C for the second.

First: COc1ccc(-c2cnc3c(n2)c(C#N)cn3S(=O)(=O)c2ccc(C)cc2)cc1OC
Second: COc1cc(Nc2c(C#N)cnc3cc(-c4ccc(CN(C)C)cc4)sc23)cc(OC)c1OC
The melting point of the first is higher: 233 to 234 °C for the first, 199 to 201 °C for the second.

First: Cn1nnnc1SCCCSc1ncccc1O
Second: CCCCc1cc2c(=O)n3cc(C(N)=O)ccc3nc2s1
The melting point of the first is lower: 87.5 to 88.5 °C for the first, 266 to 267 °C for the second.

Compared with `CC(C)(C)Cc1ccc2c(c1)C(=O)c1ccccc1C2=O`, `Cc1c(-c2ccccc2)oc2c(CO)cccc2c1=O` is higher in melting point: 93.8 °C for the first, 145 to 147 °C for the second.

Compared with `CN(c1cccc2cc(-c3nncs3)[nH]c12)S(=O)(=O)c1cccs1`, `COc1ccc(-c2nc(S(=O)(=O)C(F)(F)C(F)F)[nH]c2-c2cccs2)cc1` is lower in melting point: 270 to 271 °C for the first, 163 to 164 °C for the second.

Compared with `CCCOCCOc1ccc(-c2ccc3c(c2)C=C(C(=O)Nc2ccc(CN(C)C4CCOCC4)cc2)CCS3(=O)=O)c(C)c1C`, `CCCOc1ccc(C)c2c(=O)c(-c3ccc(OC)cc3)c[nH]c12` is higher in melting point: 158 to 159 °C for the first, 192 to 193 °C for the second.

Compared with `Nc1cc(=O)n(Cc2cccc(Br)c2)[nH]1`, `CCCCCc1ccc(C(=O)Cc2cccc(C#N)c2)cc1` is lower in melting point: 160 °C for the first, 73 °C for the second.

First: NC(=O)c1c(I)cc(I)c(C(N)=O)c1I
Second: O=C(O)c1ccc(C(=O)N2Cc3cccn3Cc3ccccc32)c(Cl)c1
The melting point of the first is higher: 245 to 248 °C for the first, 198 to 199 °C for the second.

First: CC(C)(S)CN1CCN(C(=O)c2ccc(O)cc2)CC1
Second: CC1(C)CC(=C(c2ccc(O)cc2)c2ccc(C#CCCO)cc2)CC(C)(C)C1
The melting point of the first is lower: 46 °C for the first, 183 to 184 °C for the second.

Compared with `COc1ccc(Oc2c(C)cc([N+](=O)[O-])cc2C)cc1Cc1ccc(F)cc1`, `COc1ccc(C(Sc2cc(Oc3ccc(Cl)cc3)ccc2N)C(O)C(=O)O)cc1` (stereo unspecified) is higher in melting point: 105 to 110 °C for the first, 179 to 181 °C for the second.

Compared with `COCCNC(=O)c1ccc2c(c1)C=CC(C)(C)O2`, `CC(C)(C)OC(=O)NCC(Cl)c1ccsc1` (stereo unspecified) is higher in melting point: 57 to 60 °C for the first, 63 to 65 °C for the second.

First: C/C(=C\c1ccc(CO)cc1)c1ccc2c(c1)C(C)(C)C(O)CC2(C)C (stereo unspecified)
Second: C=CCN1CC(C)N(C(c2ccc(C(=O)N(CC)CC)cc2)c2cccc(O)c2)CC1C (stereo unspecified)
The melting point of the first is higher: 182 to 183 °C for the first, 170 to 171 °C for the second.

First: Cc1cc(C)c(/C=C/[C@H]2C[C@H](O)CC(=O)O2)c(-c2ccc(F)c(CO)c2)c1 (relative stereo)
Second: O=C(O)c1cn(CCO)c2c(F)c(N3CCn4ccnc4C3)c(F)cc2c1=O
The melting point of the first is lower: 137 to 138 °C for the first, 253 to 255 °C for the second.

First: COc1ccc(C(=O)C2=C(c3ccccc3)c3ccc(OC)cc3C2)cc1
Second: CC(C)(Oc1cccc2ccccc12)C(=O)Nc1ccc(C(=O)O)cc1
The melting point of the first is lower: 113 to 114 °C for the first, 155 °C for the second.

First: CCCCCCCCCCOc1cc(OCCCCCCCCCC)cc(C(=O)OC)c1
Second: CC(C)CCCC(C)CCCC(C)CCOc1ccc(C(=O)O)o1 (stereo unspecified)
The melting point of the first is lower: 52 to 53 °C for the first, 70 to 73 °C for the second.

First: CC(C)c1cccc(C(C)C)c1NS(=O)(=O)NC(=O)N(Cc1ccccc1)Cc1ccccc1
Second: CC(C)[C@H](NC(=O)OCc1ccccc1)C(=O)NC(Cc1ccccc1)C(O)C(Cc1ccccc1)NC(=O)[C@@H](NC(=O)OCc1ccccc1)C(C)C (stereo partly specified)
The melting point of the first is lower: 140 to 142 °C for the first, 198 to 200 °C for the second.

First: CCOc1cc(N)nc(Cl)n1
Second: CCCOc1nc(N)c2ncn(C3CCCCC3)c2n1
The melting point of the first is lower: 133 °C for the first, 146 to 148 °C for the second.

First: CC(C)c1[nH]cnc1CO
Second: COC(=O)COc1c(OC)cc(C=O)cc1OC
The melting point of the first is higher: 121 to 123 °C for the first, 99 to 100 °C for the second.

First: O=C(O)c1cccc(-c2cccc3oc(Cc4cccc(C(F)(F)F)c4)cc23)c1
Second: Cc1cc(C(=O)O)ccc1C(N)(CC1c2ccccc2Oc2ccccc21)C(=O)O (stereo unspecified)
The melting point of the first is lower: 138 to 139 °C for the first, 215 to 216 °C for the second.

Compared with `COc1c(C=Cc2ccc(C=CC3=C(C#N)C(=C(C#N)C#N)OC3(C)C(F)(F)F)s2)cc2c3c1CCCN3CCC2` (stereo unspecified), `COc1c(N2CCCC(CN)C2)c(F)cc2c(=O)c(C(=O)O)cn(C3CC3)c12` (stereo unspecified) is higher in melting point: 159 to 161 °C for the first, 192 to 193 °C for the second.

Compared with `CC1=Nc2c(C)nn(C)c2C2=NC(C)C(C)N12` (stereo unspecified), `Cc1cc(C#Cc2ccccc2)nc(Oc2cc(C(F)(F)F)nn2C)c1` is lower in melting point: 280 °C for the first, 56 °C for the second.

Compared with `CC1(C)SC2C(NC(c3ccccc3)(c3ccccc3)c3ccccc3)C(=O)N2C1c1nnn[nH]1` (stereo unspecified), `O=C1CC(c2cccc(OCc3ccccc3)c2)=Nc2ccc(N3CCCC3)cc21` is higher in melting point: 133 to 136 °C for the first, 320 to 322 °C for the second.

First: CCC(=O)O[C@@H]1OCC[C@@H]1NC(=O)[C@@H](NS(=O)(=O)c1cccc2ccccc12)[C@@H](C)CC
Second: N#CN=C(Nc1cccc(-c2cccc(S(=O)(=O)NC(CC(=O)O)c3ccccc3)c2)c1)NC1CC1 (stereo unspecified)
The melting point of the first is higher: 157 to 159 °C for the first, 120 °C for the second.

First: CN1C(=O)NC(=O)CC1c1ccccc1 (stereo unspecified)
Second: C#CCN1C(=O)c2cccc3c2N(CC3)c2ccccc21
The melting point of the first is higher: 155 to 156 °C for the first, 104 to 105 °C for the second.

Compared with `COc1cnn(C2CCCCO2)c(=O)c1` (stereo unspecified), `O=[N+]([O-])c1ccc(C2CCN(c3ccncc3)CC2)cc1` is higher in melting point: 76 to 78 °C for the first, 173 to 174 °C for the second.

`O=C1CCc2cc(Cl)c(Cl)cc21` showed a melting point of 155 °C.
